Among the data in patent publication US11306087B2, “Inhibitors of KRAS G12C and methods of using the same” (Amgen Inc., priority 2017, dated 2022) are IC50 values, retold here.

In assay [1] the target is GDP-bound KRAS protein (aa 1-169), containing both G12C and C118A amino acid substitutions (Homo sapiens (Human), UniProt P01116, C118A/G12C). The experiment in a line: Coupled Nucleotide Exchange Assay. To be noted: 5 min compound pre-incubation; inhibition of SOS-mediated nucleotide exchange; AlphaScreen. The class given is biochemical. The procedure: For compounds in Table 2, the following assay conditions were employed: Coupled Nucleotide Exchange Assay: Purified GDP-bound KRAS protein (aa 1-169), containing both G12C and C118A amino acid substitutions and an N-terminal His-tag, was pre-incubated with a compound dose-response titration for 5 min in assay buffer (25 mM HEPES pH 7.4, 10 mM MgCl2, and 0.01% Triton X-100). Following compound pre-incubation, purified SOS protein (aa 564-1049) and GTP (Roche 10106399001) were added to the assay wells and incubated for an additional 30 min. To determine the extent of inhibition of SOS-mediated nucleotide exchange, purified GST-tagged cRAF (aa 1-149), nickel chelate AlphaLISA acceptor beads (PerkinElmer AL108R), and AlphaScreen glutathione donor beads (PerkinElmer 6765302) were added to the assay wells and incubated for 5 minutes. The assay plates were then read on a PerkinElmer EnVision Multilabel Reader, using AlphaScreen® technology, and data were analyzed using a 4-parameter logistic model to calculate IC50 values.
(In Alpha technology, singlet oxygen from a donor bead excites a nearby acceptor bead.)

Assay [2] deals with Phosphorylation of ERK1/2 in MIA PaCa-2 cells. Put plainly: Phospho-ERK1/2 MSD Assay. Format: cell-based. To be noted: Homo sapiens, 2 hours compound treatment, 10 ng/mL EGF for 10 min, read-out: p-ERK IC50 (MIA PaCa-2). The procedure: Phospho-ERK1/2 MSD Assay: MIA PaCa-2 (ATCC® CRL-1420™) and A549 (ATCC® CCL-185™) cells were cultured in RPMI 1640 Medium (ThermoFisher Scientific 11875093) containing 10% fetal bovine serum (ThermoFisher Scientific 16000044) and 1× penicillin-streptomycin-glutamine (ThermoFisher Scientific 10378016). Sixteen hours prior to compound treatment, MIA PaCa-2 or A549 cells were seeded in 96-well cell culture plates at a density of 25,000 cells/well and incubated at 37° C., 5% CO2. A compound dose-response titration was diluted in growth media, added to appropriate wells of a cell culture plate, and then incubated at 37° C., 5% CO2 for 2 hours. Following compound treatment, cells were stimulated with 10 ng/mL EGF (Roche 11376454001) for 10 min, washed with ice-cold Dulbecco's phosphate-buffered saline, no Ca^2+ or Mg^2+ (ThermoFisher Scientific 14190144), and then lysed in RIPA buffer (50 mM Tris-HCl pH 7.5, 1% Igepal, 0.5% sodium deoxycholate, 150 mM NaCl, and 0.5% sodium dodecyl sulfate) containing protease inhibitors (Roche 4693132001) and phosphatase inhibitors (Roche 4906837001). Phosphorylation of ERK1/2 in compound-treated lysates was assayed using Phospho-ERK1/2 Whole Cell Lysate kits (Meso Scale Discovery K151DWD) according to the manufacturer's protocol. Assay plates were read on a Meso Scale Discovery Sector Imager 6000, and data were analyzed using a 4-parameter logistic model to calculate IC50 values.

GDP-bound KRAS protein (aa 1-169), containing both G12C and C118A amino acid substitutions, sequence (P01116 other isoform, or with tags, fused parts or gaps G12C/C118A): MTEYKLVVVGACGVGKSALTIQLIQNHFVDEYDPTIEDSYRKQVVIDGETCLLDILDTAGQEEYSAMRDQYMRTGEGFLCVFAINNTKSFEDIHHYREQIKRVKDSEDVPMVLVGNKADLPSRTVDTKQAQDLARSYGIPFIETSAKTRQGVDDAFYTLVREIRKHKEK

In general, IC50 refers to the concentration at which inhibition is half-maximal. `C=CC(=O)N1[C@H](C)CN(c2nc(=O)n(-c3c(C)ccnc3C(C)C)c3nc(-c4c(N)cccc4F)c(F)cc23)C[C@@H]1C` (atropisomer, axis not shown; (M)) [Example 18, (M)-4-(4-Acryloyl-cis-3,5-dimethylpiperazin-1-yl)-7-(2-amino-6-fluorophenyl)-6-fluoro-1-(2-isopropyl-4-methylpyridin-3-yl)pyrido[2,3-d]pyrimidin-2(1H)-one]: the IC50 in assay [1] worked out at 69 nM; in assay [2] it was 75 nM.

In the case of `C=CC(=O)N1[C@H](C)CN(c2nc(=O)n(-c3c(C)ccnc3C(C)C)c3nc(-c4ccccc4F)c(Cl)cc23)C[C@@H]1C` (atropisomer, axis not shown; (M)) [Example 13, (M)-4-(4-Acryloyl-cis-3,5-dimethylpiperazin-1-yl)-6-chloro-7-(2-fluorophenyl)-1-(2-isopropyl-4-methylpyridin-3-yl)pyrido[2,3-d]pyrimidin-2(1H)-one], the IC50 was 53 nM in assay [1] and 46 nM in assay [2].

Consider `C=CC(=O)N1C[C@H](C)N(c2nc(=O)n(-c3c(C(C)C)ncnc3C(C)C)c3nc(-c4c(O)cccc4F)c(Cl)cc23)C[C@H]1C` [Example 8, 4-((2S,5R)-4-Acryloyl-2,5-dimethylpiperazin-1-yl)-6-chloro-1-(4,6-diisopropylpyrimidin-5-yl)-7-(2-fluoro-6-hydroxyphenyl)pyrido[2,3-d]pyrimidin-2(1H)-one], for which the IC50 in assay [1] was 30 nM; in assay [2], 15 nM.

Take `C=CC(=O)N1[C@H](C)CN(c2nc(=O)n(-c3c(C(C)C)ncnc3C(C)C)c3nc(-c4c(O)cccc4F)c(F)cc23)C[C@@H]1C` [Example 23, 4-(4-Acryloyl-cis-3,5-dimethylpiperazin-1-yl)-1-(4,6-diisopropylpyrimidin-5-yl)-6-fluoro-7-(2-fluoro-6-hydroxyphenyl)pyrido[2,3-d]pyrimidin-2(1H)-one]: the IC50 was 173 nM in assay [1] and 132 nM in assay [2].

Consider `C=CC(=O)N1C[C@H](C)N(c2nc(=O)n(-c3c(C)ccnc3C(C)C)c3nc(-c4ccccc4F)c(Cl)cc23)C[C@H]1C` [Example 1, 4-((2S,5R,M)-4-Acryloyl-2,5-dimethylpiperazin-1-yl)-6-chloro-7-(2-fluorophenyl)-1-(2-isopropyl-4-methylpyridin-3-yl)pyrido[2,3-d]pyrimidin-2(1H)-one], for which the IC50 amounted to 40 nM in assay [1] and 26 nM in assay [2].

Consider `C=CC(=O)N1C[C@H](C)N(c2nc(=O)n(-c3c(C(C)C)ncnc3C(C)C)c3nc(-c4c(N)cccc4F)c(Cl)cc23)C[C@H]1C` [Example 9, 4-((2S,5R)-4-Acryloyl-2,5-dimethylpiperazin-1-yl)-7-(2-amino-6-fluorophenyl)-6-chloro-1-(4,6-diisopropylpyrimidin-5-yl)pyrido[2,3-d]pyrimidin-2(1H)-one], for which the results for the IC50 in assay [1] and in assay [2] were 54 nM and 21 nM, respectively.
